# Results taken from ChEMBL document CHEMBL1131655 (Bioorg Med Chem Lett, 1998).
# Assays:
# [1] = target: T1, Adenosine receptor A1 (Homo sapiens) (UniProt P30542); assay: Percentage extracellular acidification rate was evaluated against human adenosine A1 receptor expressed in CHO-K1 cells; type: functional, cell-based
# T1 sequence (whole entry): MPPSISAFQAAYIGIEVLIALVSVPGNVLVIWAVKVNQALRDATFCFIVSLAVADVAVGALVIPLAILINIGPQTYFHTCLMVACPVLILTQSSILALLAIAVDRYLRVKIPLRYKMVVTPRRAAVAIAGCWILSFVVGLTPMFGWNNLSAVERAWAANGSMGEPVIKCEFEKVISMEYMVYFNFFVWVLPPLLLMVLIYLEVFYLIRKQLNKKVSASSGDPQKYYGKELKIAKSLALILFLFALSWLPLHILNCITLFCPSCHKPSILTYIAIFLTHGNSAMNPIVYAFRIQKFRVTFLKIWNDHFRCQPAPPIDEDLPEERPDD
# Adenosine receptor A1 [2] = target: T2, Adenosine receptor A1 (Rattus norvegicus, UniProt P25099); assay: Binding affinity against adenosine A1 receptor in rat brain using [3H]R-PIA; type: tissue-based
# T2 sequence (P25099 whole entry): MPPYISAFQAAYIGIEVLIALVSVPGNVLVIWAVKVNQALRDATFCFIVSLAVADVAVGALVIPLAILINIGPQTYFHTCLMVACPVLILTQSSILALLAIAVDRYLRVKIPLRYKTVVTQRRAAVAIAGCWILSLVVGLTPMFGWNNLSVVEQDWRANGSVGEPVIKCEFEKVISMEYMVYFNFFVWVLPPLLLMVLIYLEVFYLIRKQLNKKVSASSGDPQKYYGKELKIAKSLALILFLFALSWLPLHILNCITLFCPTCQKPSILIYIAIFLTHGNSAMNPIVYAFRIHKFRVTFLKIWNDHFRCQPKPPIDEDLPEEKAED
# [3] = target: T1, Adenosine receptor A1 (Homo sapiens); assay: Emax for R-PIA against Human Adenosine A1 receptor
# Adenosine receptor A1 [4] = target: T3, Adenosine receptor A1 (Homo sapiens, UniProt P30542); assay: Binding against Human Adenosine A1 receptor
# T3 sequence (P30542 whole entry): T1 sequence (whole entry)
smiles,measurement,setting,value
OC[C@@H]1OC(n2cnc3c2N=CN2C[C@H](c4ccccc4)N=C32)[C@@H](O)[C@H]1O (stereo partly drawn),ECAR,[1],106%
OC[C@@H]1OC(n2cnc3c2N=CN2C[C@@H](c4ccccc4)N=C32)[C@@H](O)[C@H]1O (stereo partly drawn),ECAR,[1],113%
NC1=Nc2c(ncn2C2O[C@@H](CO)[C@H](O)[C@@H]2O)C2=N[C@@H](c3ccccc3)CN12 (stereo partly drawn),Ki,Adenosine receptor A1 [2],610 nM
same,ECAR,[1],117%
NC1=Nc2c(ncn2C2O[C@@H](CO)[C@H](O)[C@@H]2O)C2=N[C@H](c3ccccc3)CN12 (stereo partly drawn),Emax,[3],90%
same,EC50,Adenosine receptor A1 [4],100000 nM
same,Ki,Adenosine receptor A1 [2],1020 nM
same,ECAR,[1],122%
